GI50 and TGI data for 9 molecules are collected here from PubChem BioAssay (NCI).

What all share (experiment): inhibition of tumour cell growth, NCI panel, 48 h
The subject of experiment [1] is SW-620 colon.
For experiment [2], the system named is UACC-62 melanoma.
Experiment [3] concerns HOP-92 NSCLC.
For experiment [4], the system named is NCI-H522 lung.
Experiment [5] deals with BT-549 breast.
The test system of experiment [6] is NCI-H23 lung.
In experiment [7] the test system is T-47D breast.
Experiment [8] relates to NCI-H460 lung.
Experiment [9] concerns NCI-H226 lung.
For experiment [10], the system named is IGROV1 ovarian.

Several values for one entry are separate records, joined by “and”; a condition that tells them apart may be missing. Identical values can stand only once.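 Step 1: Grow cells in 96-well plates. Step 2: Expose to compound for 48 hours at 5 concentrations. Step 3: Interpolate endpoints linearly; if unreached, use highest concentration. GI50 is the concentration that inhibits growth by half. At the TGI there is no net growth.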 Where a SMILES comes first, the peptide text is derived from it. The star is where a group is joined. Boc = CC(C)(C)OC(=O)*

As to `O=C1c2cccc3cccc(c23)C(=O)N1CCCCCN1CCN(CCCCCOc2ccc(-c3nc4ccc(N5CCOCC5)cc4[nH]3)cc2)CC1`, the GI50 in experiment [1] was 1.83 µM; in experiment [2], 16.1 µM; in [3] it was 25.1 µM; in experiment [4], > 49 µM; in experiment [5], 4.88 µM; in experiment [6], 21.2 µM. Further, the GI50 in experiment [7] is 2.01 µM; in experiment [8], 16.8 µM; in [9], 7.24 µM; in experiment [10] it was 1.76 µM. The TGI in experiment [1] was 4.21 µM; in [2], > 57.1 µM; in [3], > 58.2 µM; in experiment [4], > 68.5 µM; in experiment [5] it was 23.2 µM; in experiment [6], 46.6 µM. In addition, the TGI in [7] was 7.71 µM; in experiment [8] it was 30.8 µM; in experiment [9], 30.2 µM; in experiment [10], 8.08 µM.
Regarding `O=C(NNc1ccccc1)C(=O)NNc1ccccc1`, the GI50 was 7.3 µM in experiment [1]; 0.43 µM in [2]; > 100 µM in [3]; > 100 µM in experiment [4]; 42.4 µM in experiment [5]; > 100 µM in experiment [6]. Besides, the GI50 in experiment [7] is 0.52 µM; in experiment [8] it was 3.47 µM; in [9] it was > 100 µM; in experiment [10], > 100 µM. Also, the TGI in experiment [1], in experiment [2], in experiment [3], in [4], in experiment [5] and in [6] was > 100 µM each time. For the same molecule, the TGI in experiment [7], in experiment [8], in [9] and in experiment [10] was > 100 µM throughout.
For the molecule `CC(C)=CCc1cc(O)cc2c1OC(C=C(C)C)C1=C2C(=O)C2=C(C1=O)S(=O)(=O)CCN2` (centres undefined), the GI50 was 5.34 µM in experiment [1]; 2.81 µM in experiment [2]; 6.05 µM in experiment [3]; 2.94 µM in experiment [4]; 5.18 µM in experiment [5]; 3.85 µM in [6]. Besides, the GI50 in [7] was 3.57 µM; in [8] it was 5.23 µM; in [9], 4.75 µM; in experiment [10], 3.23 µM. Besides, the TGI was 16.5 µM in [1]; 5.46 µM in experiment [2]; > 16.7 µM in experiment [3]; 7.03 µM in [4]; > 16.7 µM in experiment [5]; 12.9 µM in experiment [6]. Besides, the TGI was 12.7 µM in [7], > 16.7 µM in [8], > 16.7 µM in experiment [9] and 9.17 µM in [10].
Consider `Cc1ccc2c(C3C(C#N)=C(N)Oc4cc5ccccc5cc43)cc(=O)oc2c1` (centres undefined), for which the GI50 is 0.736 µM in [1]; 0.704 µM in experiment [2]; 19.7 µM in experiment [3]; 0.446 µM in experiment [4]; 3.67 µM in experiment [5]; 6.06 µM in [6]. In addition, the GI50 is 1.49 µM in experiment [7], 0.883 µM in experiment [8], 62.1 µM in [9] and 0.983 µM in experiment [10]. In addition, the TGI in experiment [1] was > 100 µM; in experiment [2], > 100 µM; in [3], 84 µM; in [4], 11.6 µM; in [5], 64.3 µM; in experiment [6], > 100 µM. The TGI in [7] was 64 µM; in [8], 15.5 µM; in experiment [9] it was > 100 µM; in experiment [10], > 100 µM.
Turning to `CN(C)C/C=C/C(=O)Nc1cc2c(Nc3ccc(F)c(Cl)c3)ncnc2cc1O[C@H]1CCOC1`, the GI50 in [1] is 1.38 µM and 1.5 µM; in experiment [2], 2.39 µM and 3.28 µM; in experiment [3] it was 0.227 µM; in experiment [4] it was 0.0189 µM and 0.00532 µM; in [5] it was 2.28 µM and 2.18 µM; in experiment [6], 1.96 µM and 2.49 µM. In addition, the GI50 in [8] was 2.87 µM and 3.46 µM; in experiment [9], 2.04 µM and 5.25 µM. The TGI in [1] was 4.63 µM and > 7.89 µM; in experiment [2], 7.49 µM and > 10 µM; in [3], 4.44 µM; in experiment [4], 1.15 µM and 2.74 µM; in [5] it was 9.6 µM and > 10 µM; in [6], 8.66 µM and > 10 µM. The TGI in experiment [7] is 15.9 µM and > 10 µM; in experiment [8], 11.7 µM and > 10 µM; in experiment [9], 8.45 µM and > 10 µM; in experiment [10], 12.5 µM and 2.35 µM.
`COC(=O)C1=CN(CC2=CC(=O)C(C)=CC2=O)C=C(C(=O)OC)C1c1cccc(OC)c1`: the GI50 in [1] is 2.2 µM; in [2], 13.6 µM; in [3], 10.6 µM; in [4] it was 8.19 µM; in experiment [5] it was 8.61 µM; in experiment [6], 18.4 µM. The GI50 in experiment [7] was 8.26 µM; in experiment [8], 14.3 µM; in experiment [9], 20 µM; in experiment [10] it was 12.8 µM. In addition, the TGI was 4.81 µM in [1]; 29.4 µM in [2]; 33.8 µM in [3]; > 31.9 µM in experiment [4]; 36.6 µM in experiment [5]; 53.5 µM in experiment [6]. For the same molecule, the TGI was > 100 µM in experiment [7], 49.7 µM in [8], 62.2 µM in experiment [9] and > 58.1 µM in experiment [10].
Regarding `COC(=O)C(C)NC(=O)C(CCSC)NC(=O)C(Cc1ccccc1)NC(=O)OC(C)(C)C` (stereo not drawn) (Boc-Phe-Met-Ala-OMe; configuration not given here), the GI50 in experiment [1] was 18.2 µg/mL; in [2], 28.2 µg/mL; in experiment [4], 13.1 µg/mL; in experiment [5] it was 18.3 µg/mL; in [6], 41.9 µg/mL; in [8], 40.6 µg/mL. For the same molecule, the GI50 in experiment [10] was 53.5 µg/mL. Besides, the TGI is 37.2 µg/mL and > 100 µM in [1]; > 100 µM in experiment [2]; > 100 µM in experiment [3]; > 100 µM in experiment [5]; > 100 µM in [6]; > 100 µM in experiment [7]. Moreover, the TGI in [8], in experiment [9] and in experiment [10] was > 100 µM in each case.
`CC1(C)N=C(N)N=C(N)N1c1ccc(CCCCc2ccc(Cl)c(S(=O)(=O)F)c2)c(Cl)c1`: the GI50 was 0.147 µM in [1]; 0.372 µM in [2]; 1.08 µM in experiment [3]; 0.71 µM in [4]; 1.55 µM in experiment [5]; 0.843 µM in experiment [6]. The GI50 in experiment [7] is 3.11 µM; in experiment [8] it was 0.315 µM; in experiment [9], 4.18 µM; in [10], 0.117 µM. The TGI in experiment [1] is 15.4 µM; in experiment [2] it was > 47.9 µM; in experiment [3] it was 15.2 µM; in experiment [4], 13.3 µM; in experiment [5], 12.5 µM; in [6], 19 µM. Besides, the TGI turned out to be 15.1 µM in [7], 16.5 µM in experiment [8], 37.6 µM in experiment [9] and 20.7 µM in [10].
For `CC(C)=CCc1cc2c(cc1O)OC[C@H]1c3cc4c(cc3O[C@@H]21)OCO4`, the TGI was > 100 µM in experiment [1]; > 100 µM in experiment [2]; > 100 µM in experiment [3]; > 100 µM in [4]; 95.3 µM in experiment [5]; 96.3 µM in experiment [6]. Besides, the TGI in [7] is > 100 µM; in experiment [8], 44.5 µM; in experiment [9] it was 69.7 µM; in [10], > 100 µM.
